What is called IC50 is the concentration that inhibits the measured activity by half.

The source of these data is patent publication US10544095B2 (Pfizer Inc., priority 2015, dated 2020).

For experiment [1], the target named is hTDO2 in human glioblastoma A172 cells (Homo sapiens (Human), UniProt P48775). In words: Cellular assay for TDO2 activity determination in A172 cells. Particulars: overnight incubation, kynurenine absorbance at 480 nm. It counts as cell-based. In outline: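 Glioblastoma A172 cells with endogenous hTDO2, 1.25×10^4 cells/well, incubated overnight at 37° C. with ten serial compound concentrations in IMDM with 2% FBS. Supernatant kynurenine, after TCA precipitation and 4-(dimethylamino)-benzaldehyde reaction, read at 480 nm against kynurenine standard curve; data curve-fitted.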

The target of the next experiment is TDO2 (Mus musculus (Mouse), UniProt P48776). In words: Pharmacodynamic assay for TDO2 in vivo activity: increase of blood tryptophan levels in mice. Particulars: female BALB/c mice, plasma after two hours. The method, then: The compounds of the present invention increase the amount of Tryptophan in mouse blood. Briefly, female BALB/c mice (7-8 weeks old) were treated with either a suspension of one of the compounds of the present invention in 0.5% hydroxypropyl methyl cellulose (HPMC) K4M (4000 mPa·s (cPs), Methocell™, Dow chemical)/0.25% Tween® 20 (Sigma Aldrich) at different doses (30, 60 and 100 mg/kg), or with a vehicle control (0.5% HPMC K4M/0.25% Tween 20), by the oral route by gavage (dosing volume 5 mL/kg, 10 mice per group). After two hours, blood was harvested, plasma was prepared and the amount of Tryptophan present was determined by LC-MS-MS (HPLC column Unison UK-Phenyl, 75×4.6, 3 μm, flow rate 0.8 mL/min, 8 minutes gradient from 95% water+0.1% formic acid/5% Acetonitrile+0.1% formic acid to 5% water+0.1% formic acid/95% Acetonitrile+0.1% formic acid, retention time 2.4 min; API4000 MS-MS system from AB Sciex, ESI+ mode, parent ion 205.1, daughter ion 146.1).

For experiment [2], the target named is human recombinant TDO2 enzyme (Homo sapiens (Human), UniProt P48775). In words: Assay for TDO2 enzymatic activity determination. In kind it is biochemical. Particulars: human recombinant TDO2, L-Trp 1 mM, kynurenine absorbance at 480 nm. The method, then:
The compounds of formula I, its subformulae, and enantiomers, salts and solvates thereof, are useful to inhibit the enzymatic activity of human TDO2. To measure the TDO2 activity, the procedure described in Dolusic et al. J. Med. Chem.; 2011, 54, […] was adapted: the reaction mixture contained (final concentrations) potassium phosphate buffer (50 mM, pH 7.5), ascorbic acid ([…]), methylene blue (0.125 μM), catalase (40 units/mL, from bovine liver, Sigma), and human recombinant TDO2 enzyme (prepared as described in Dolusic et al. J. Med. Chem.; 2011, 54, 5320-5334; 0.9 μg) without or with the compounds of the present invention at the indicated concentrations (total volume 112.5 μL). The reaction was initiated by the addition of 37.5 μL of L-Trp (final concentration 1 mM) at room temperature. The reaction was conducted at room temperature during one hour and stopped by the addition of 30 μL of 30% (w/v) trichloroacetic acid. To convert N-formylkynurenine into kynurenine, the reaction mixture was incubated at 65° C. for 30 min. […] Kynurenine concentrations were determined by measuring the absorbance at 480 nm. A standard curve was made with pure kynurenine. The TDO activity was measured as described above using ten serial concentrations of the compounds of the present invention. Data were fitted using the Prism™ software (GraphPad Software, Inc.) using standard parameters.

Sequence of TDO2 (P48776 whole entry): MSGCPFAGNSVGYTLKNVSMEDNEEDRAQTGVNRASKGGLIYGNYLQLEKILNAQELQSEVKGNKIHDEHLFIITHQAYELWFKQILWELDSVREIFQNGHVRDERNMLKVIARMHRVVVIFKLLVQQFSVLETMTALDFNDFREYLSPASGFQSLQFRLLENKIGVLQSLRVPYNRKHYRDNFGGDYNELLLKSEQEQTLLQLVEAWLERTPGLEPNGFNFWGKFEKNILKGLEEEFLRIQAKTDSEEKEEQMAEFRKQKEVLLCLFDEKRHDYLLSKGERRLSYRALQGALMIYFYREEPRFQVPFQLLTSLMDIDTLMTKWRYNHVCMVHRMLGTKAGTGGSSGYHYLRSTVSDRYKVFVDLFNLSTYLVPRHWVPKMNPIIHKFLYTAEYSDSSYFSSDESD
Sequence of hTDO2 in human glioblastoma A172 cells (P48775 whole entry): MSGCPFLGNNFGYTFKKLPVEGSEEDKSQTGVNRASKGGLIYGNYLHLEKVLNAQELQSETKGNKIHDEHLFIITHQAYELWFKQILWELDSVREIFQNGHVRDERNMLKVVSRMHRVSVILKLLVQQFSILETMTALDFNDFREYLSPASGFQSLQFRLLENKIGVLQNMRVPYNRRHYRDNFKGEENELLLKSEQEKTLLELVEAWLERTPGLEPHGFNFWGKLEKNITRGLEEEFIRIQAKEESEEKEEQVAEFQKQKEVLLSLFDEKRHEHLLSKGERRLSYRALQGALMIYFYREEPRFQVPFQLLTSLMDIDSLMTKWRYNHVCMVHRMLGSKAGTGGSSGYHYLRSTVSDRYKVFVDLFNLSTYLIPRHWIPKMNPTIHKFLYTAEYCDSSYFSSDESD
Sequence of human recombinant TDO2 enzyme (P48775 whole entry): as above

Consider `CC(=O)NCCNS(=O)(=O)c1ccc(-c2c[nH]c3cc(F)ccc23)cc1` [Example 16, N-(2-(4-(6-fluoro-1H-indol-3-yl)phenylsulfonamido)-ethyl)acetamide], for which, in experiment [1], the IC50 came out at 0.18 µM. Moreover, the “Trp in plasma (average ± standard error of the mean)” value was found to be 32700 ng/mL on TDO2 (30 mg/kg oral gavage), 35300 ng/mL at TDO2 (60 mg/kg oral gavage) and 34000 ng/mL at TDO2 (100 mg/kg oral gavage).
For the compound `CS(=O)(=O)NCCNS(=O)(=O)c1ccc(-c2c[nH]c3cc(F)ccc23)cc1` [Example 21, 4-(6-fluoro-1H-indol-3-yl)-N-(2-(methylsulfonamido)-ethyl)benzenesulfonamide], the IC50 in experiment [2] was 0.74 µM; in experiment [1], 0.12 µM.
The matching figures for `NC(=O)CCNS(=O)(=O)c1ccc(-c2c[nH]c3cc(F)ccc23)cc1` [Example 26, 3-(4-(6-fluoro-1H-indol-3-yl)phenylsulfonamido)propanamide]: 0.73 µM and 0.11 µM.
The corresponding values for `N#Cc1cc(-c2c[nH]c3cc(F)ccc23)ccc1S(=O)(=O)N1CCNCC1` [Example 32, 5-(6-Fluoro-1H-indol-3-yl)-2-(piperazine-1-sulfonyl)-benzonitrile] are 0.73 µM and 0.17 µM.
The corresponding values for `Cc1cc(-c2c[nH]c3cc(F)ccc23)ccc1S(=O)(=O)N1CCNCC1` [Example 34, 6-fluoro-3-(3-methyl-4-(piperazin-1-ylsulfonyl)-phenyl)-1H-indole] are 0.52 µM and 0.29 µM.
For `O=S(=O)(c1ccc(-c2c[nH]c3cc(F)ccc23)cc1O)N1CCNCC1` [Example 35, 5-(6-fluoro-1H-indol-3-yl)-2-(piperazin-1-ylsulfonyl)phenol], the figures for the IC50 in experiment [2] and in experiment [1] were 0.42 µM and 0.33 µM, respectively.
The corresponding values for `NCCNS(=O)(=O)c1cc(-c2c[nH]c3cc(F)ccc23)ccc1Cl` [Example 36, N-(2-aminoethyl)-2-chloro-5-(6-fluoro-1H-indol-3-yl)-benzenesulfonamide] are 0.77 µM and 0.43 µM.
The matching figures for `O=C1CN(S(=O)(=O)c2ccc(-c3c[nH]c4cc(F)ccc34)cc2)CCN1` [Example 40, 4-((4-(6-fluoro-1H-indol-3-yl)phenyl)sulfonyl)piperazin-2-one]: 0.93 µM and 0.17 µM.
The corresponding values for `CNC(=O)CCNS(=O)(=O)c1ccc(-c2c[nH]c3cc(F)ccc23)cc1` [Example 50, 3-(4-(6-fluoro-1H-indol-3-yl)phenylsulfonamido)-N-methylpropanamide] are 0.96 µM and 0.11 µM.
Take `O=S(=O)(c1ccc(-c2c[nH]c3cc(F)ccc23)cc1)N1C[C@@H](O)[C@@H](O)C1` [Example 58, (cis)-1-((4-(6-fluoro-1H-indol-3-yl)phenyl)sulfonyl)-pyrrolidine-3,4-diol]: the IC50 in experiment [2] is 0.53 µM; in experiment [1], 0.13 µM.
The corresponding values for `O=S(=O)(c1c(Cl)cc(-c2c[nH]c3cc(F)ccc23)cc1Cl)N1CCNCC1` [Example 76, 3-(3,5-dichloro-4-(piperazin-1-ylsulfonyl)phenyl)-6-fluoro-1H-indole] are 0.47 µM and 0.833 µM.
On to `O=S(=O)(c1ccc(-c2c[nH]c3cc(F)ccc23)cc1)N1CC[C@@H](O)C1` [Example 77, (R)-1-((4-(6-fluoro-1H-indol-3-yl)phenyl)sulfonyl)-pyrrolidin-3-ol], for which the concentration for half-maximal inhibition (IC50) in experiment [2] was found to be 0.17 µM; in experiment [1], 0.055 µM.
The corresponding values for `O=S(=O)(c1ccc(-c2c[nH]c3cc(F)ccc23)cc1)N1CC[C@H](O)C1` [Example 79, (S)-1-((4-(6-fluoro-1H-indol-3-yl)phenyl)sulfonyl)-pyrrolidin-3-ol] are 0.12 µM and 0.094 µM.
With `N[C@H]1CN(S(=O)(=O)c2ccc(-c3c[nH]c4cc(F)ccc34)cc2)C[C@@H]1F` [Example 80, (3S,4 S)-4-fluoro-1-{[4-(6-fluoro-1H-indol-3-yl)phenyl]sulfonyl}pyrrolidin-3-amine], the IC50 was 0.9 µM in experiment [2] and 0.17 µM in experiment [1].
The corresponding values for `NC(=O)COC1CCN(S(=O)(=O)c2ccc(-c3c[nH]c4cc(F)ccc34)cc2)CC1` [Example 84, 2-[(1-{[4-(6-fluoro-1H-indol-3-yl)phenyl]sulfonyl}piperidin-4-yl)-oxy]acetamide] are 1.9 µM and 0.26 µM.
The matching figures for `CN1CC(CNS(=O)(=O)c2ccc(-c3c[nH]c4cc(F)ccc34)cc2)OCC1=O` (centres unmarked) [Example 86, 4-(6-fluoro-1H-indol-3-yl)-N-[(4-methyl-5-oxomorpholin-2-yl)methyl]benzenesulfonamide]: 1.3 µM and 0.26 µM.
The corresponding values for `O=S1(=O)CCC(NS(=O)(=O)c2ccc(-c3c[nH]c4cc(F)ccc34)cc2)C1` (centres unmarked) [Example 87, N-(1,1-dioxidotetrahydrothiophen-3-yl)-4-(6-fluoro-1H-indol-3-yl)-benzenesulfonamide] are 0.93 µM and 0.17 µM.
Consider `CS(=O)(=O)CCNS(=O)(=O)c1ccc(-c2c[nH]c3cc(F)ccc23)cc1` [Example 88, 4-(6-fluoro-1H-indol-3-yl)-N-[2-(methylsulfonyl)ethyl]-benzene-sulfonamide], for which the IC50 in experiment [2] worked out at 0.94 µM; in experiment [1] it was 0.095 µM.
For `O=C1CCN(S(=O)(=O)c2ccc(-c3c[nH]c4cc(F)ccc34)cc2)CCN1` [Example 90, 1-((4-(6-fluoro-1H-indol-3-yl)phenyl)sulfonyl)-1,4-diazepan-5-one], the IC50 is 2 µM in experiment [2] and 0.13 µM in experiment [1].
On to `C[C@@H](O)CNS(=O)(=O)c1ccc(-c2c[nH]c3cc(F)ccc23)cc1` [Example 93, (−)-(R)-4-(6-fluoro-1H-indol-3-yl)-N-(2-hydroxypropyl)-benzenesulfonamide], for which the IC50 in experiment [2] came to 0.55 µM; in experiment [1] it was 0.2 µM.
Turning to `C[C@H](O)CNS(=O)(=O)c1ccc(-c2c[nH]c3cc(F)ccc23)cc1` [Example 94, (+)-(S)-4-(6-fluoro-1H-indol-3-yl)-N-(2-hydroxypropyl)-benzenesulfonamide], the figures for the IC50 in experiment [2] and in experiment [1] were 0.84 µM and 0.3 µM, respectively.
The matching figures for `NC(=O)[C@H]1C[C@@H](NS(=O)(=O)c2ccc(-c3c[nH]c4cc(F)ccc34)cc2)C1` [Example 95, (cis)-3-(4-(6-fluoro-1H-indol-3-yl)phenylsulfon-amido)cyclobutanecarboxamide]: 1.3 µM and 0.14 µM.
The matching figures for `C[C@H](CO)NS(=O)(=O)c1ccc(-c2c[nH]c3cc(F)ccc23)cc1` [Example 96, 4-(6-fluoro-1H-indol-3-yl)-N-[(2R)-1-hydroxypropan-2-yl]benzenesulfonamide]: 1 µM and 0.16 µM.
The matching figures for `NC(=O)[C@H]1C[C@H](NS(=O)(=O)c2ccc(-c3c[nH]c4cc(F)ccc34)cc2)C1` [Example 97, (Trans)-3-(4-(6-fluoro-1H-indol-3-yl)phenyl-sulfonamido)cyclobutanecarboxamide]: 0.82 µM and 0.1 µM.
Take `CN(CCS(N)(=O)=O)S(=O)(=O)c1ccc(-c2c[nH]c3cc(F)ccc23)cc1` [Example 98, 4-(6-fluoro-1H-indol-3-yl)-N-methyl-N-(2-sulfamoylethyl)benzenesulfonamide]: the IC50 was 0.91 µM in experiment [2] and 0.25 µM in experiment [1].
The corresponding values for `O=S(=O)(NCCn1cncn1)c1ccc(-c2c[nH]c3cc(F)ccc23)cc1` [Example 99, 4-(6-fluoro-1H-indol-3-yl)-N-[2-(1H-1,2,4-triazol-1-yl)-ethyl]benzenesulfonamide] are 1.1 µM and 0.3 µM.
For the compound `O=S(=O)(c1ccc(-c2c[nH]c3cc(F)ccc23)cc1)N1CCC(O)(c2cncnc2)C1` (centres unmarked) [Example 120, 1-((4-(6-fluoro-1H-indol-3-yl)phenyl)sulfonyl)-3-(pyrimidin-5-yl)pyrrolidin-3-ol], the IC50 in experiment [2] and in experiment [1] was 0.12 µM each time.
